Measurements reported in US5300629A, “Bactericidal and/or bacteriostatic peptides isolated from hemolymph of honeybees” (Plant Genetic Systems, N.V., priority 1987, dated 1994).
Where a SMILES comes first, the peptide text is derived from it.

Columns and labels:
Type in all cases: cell-based
[1] = system: Acinetobacter calcoaceticus MON 108; assay: Inhibition zone assay; design: key: --: "-" means that no inhibition has been found
[2] = system: Micrococcus lysodeikticus LMG 4050; assay: Inhibition zone assay; design: key: --: "-" means that no inhibition has been found; details: I and B 10 ul, L 5 ug
[3] = system: E. coli NCTC 9001; assay: Killing assay, growth inhibition in liquid medium; details: purified factors in PBS (7.5% LPG), 10^3 cells, optical density at 630 nm
Protocol: Bacterial development was monitored by measuring the optical densities and by plate counts. […] The purified factors resuspended in PBS (7.5% LPG) (FIG. 4A, 4B, 4C, 4D) were inoculated with 10^4 cells (C) or 10^3 cells (A, B and D) . Bacterial development was calculated by measuring the optical densities at 630 nm.

[4] = system: Rhizobium phaseoli CIAT 899; assay: Inhibition zone assay; design: key: --: "-" means that no inhibition has been found; details: I and B 10 ul, L 5 ug
[5] = system: Escherichia coli NCTC 11601; assay: Inhibition zone assay; design: key: --: "-" means that no inhibition has been found; details: I 10 ul
[6] = system: Streptococcus pyogenes NCTC 8193; assay: Inhibition zone assay; design: key: --: "-" means that no inhibition has been found; details: I 10 ul
[7] = system: S. cerevisiae; assay: Growth-inhibition zone assay, first screening
Protocol: (§1) Whole lymph or purified components, resuspended in PBS to a final volume equal to the starting material (heated lymph), was applied in 3 mm wells on agar plates seeded with the test organisms. Antibacterial activity was determined by measuring the growth-inhibition zones (in mm).

[8] = system: D. hansenii; assay: Growth-inhibition zone assay, first screening
Protocol: as §1

[9] = system: Serratia fonticola ATCC 298449; assay: Inhibition zone assay; details: I and B 10 ul, L 5 ug
[10] = system: Clostridium perfringens NCTC 6785; design: key: --: "-" means that no inhibition has been found; details: I 10 ul
[11] = system: Erwinia carotovora var. carotovora NCPPB 312; assay: Inhibition zone assay; design: key: --: "-" means that no inhibition has been found
[12] = system: Staphylococcus hominis STH B3; assay: Inhibition zone assay; design: key: --: "-" means that no inhibition has been found; details: L 5 ug
[13] = system: Azospirillum lipoferum ATCC 29707; assay: Inhibition zone assay; design: key: --: "-" means that no inhibition has been found; details: I and B 10 ul, L 5 ug
[14] = system: Streptococci; assay: Growth-inhibition zone assay
[15] = system: Bacillus megaterium QMB 1551; assay: Inhibition zone assay; design: key: --: "-" means that no inhibition has been found; details: I and B 10 ul, L 5 ug
[16] = system: Erwinia carotovora var. atroseptica NCPPB 549; assay: Inhibition zone assay; design: key: --: "-" means that no inhibition has been found; details: I and B 10 ul, L 5 ug
[17] = system: Neisseria mucosa ATCC 25999; assay: Inhibition zone assay; design: key: --: "-" means that no inhibition has been found; details: I 10 ul
[18] = system: Shigella sonnei CQ26; assay: Inhibition zone assay; design: key: --: "-" means that no inhibition has been found; details: I and B 10 ul
Protocol: as §1

[19] = system: Shigella flexneri NCTC 9950; assay: Inhibition zone assay; design: key: --: "-" means that no inhibition has been found; details: I and B 10 ul
Protocol: as §1

[20] = system: Shigella flexneri CP 87; assay: Inhibition zone assay; design: key: --: "-" means that no inhibition has been found; details: I 10 ul
Protocol: as §1

[21] = system: Corynebacterium michiganense pv. michiganense NCPPB 1573; assay: Inhibition zone assay; design: key: --: "-" means that no inhibition has been found
Protocol: as §1

[22] = system: Clostridium difficile Bart 1924; assay: Inhibition zone assay; design: key: --: "-" means that no inhibition has been found; details: I 10 ul
Protocol: as §1

[23] = system: Pseudomonas acidovorans CuETM 83-109; assay: Inhibition zone assay; design: key: --: "-" means that no inhibition has been found; details: I and B 10 ul, L 5 ug
[24] = system: Rhizobium leguminosarum 720; assay: Inhibition zone assay; design: key: --: "-" means that no inhibition has been found
[25] = system: Janthinobacterium lividum Sneath HB; assay: Inhibition zone assay; design: key: --: "-" means that no inhibition has been found; details: I and B 10 ul, L 5 ug
[26] = system: Serratia plymuthica ATCC 183; assay: Inhibition zone assay; design: key: --: "-" means that no inhibition has been found; details: I and B 10 ul, L 5 ug
[27] = system: Salmonella Newport CD 94; assay: Inhibition zone assay; design: key: --: "-" means that no inhibition has been found; details: I 10 ul
[28] = system: Pseudomonas fluorescens ATCC 13525; assay: Inhibition zone assay; design: key: --: "-" means that no inhibition has been found
[29] = system: Pseudomonas syringae pv. maculicola NCPPB 1776; assay: Inhibition zone assay; design: key: --: "-" means that no inhibition has been found; details: * synthetic ApidIa and heattreated immune lymph instead of Bee6 and native immune lymph
[30] = system: Salmonella Montevideo 80/141; assay: Inhibition zone assay; design: key: --: "-" means that no inhibition has been found; details: I and B 10 ul
[31] = system: Proteus morganii CuETM 77-83; assay: Inhibition zone assay; design: key: --: "-" means that no inhibition has been found; details: I and B 10 ul, L 5 ug
[32] = system: Rhodococcus equi ATCC 25729; assay: Inhibition zone assay; design: key: --: "-" means that no inhibition has been found; details: I and B 10 ul, L 5 ug
[33] = system: Clostridia
[34] = system: Enterobacter cloacae BE 97; assay: Inhibition zone assay; design: key: --: "-" means that no inhibition has been found; details: I and B 10 ul
[35] = system: Haemophilus influenzae NCTC 8465; assay: Inhibition zone assay; design: key: --: "-" means that no inhibition has been found; details: I 10 ul

CC[C@H](C)[C@H](NC(=O)[C@H](CCCCN)NC(=O)[C@@H]1CCCN1C(=O)[C@H](CC(N)=O)NC(=O)[C@H](Cc1ccccc1)NC(=O)[C@@H]1CCCN1C(=O)CNC(=O)[C@H](CCC(N)=O)NC(=O)CNC(=O)[C@@H]1CCCN1C(=O)[C@H](Cc1ccccc1)NC(=O)[C@@H](NC(=O)[C@@H]1CCCN1C(=O)[C@H](Cc1ccccc1)NC(=O)[C@@H]1CCCN1C(=O)[C@H](CCCNC(=N)N)NC(=O)[C@H](CCCNC(=N)N)NC(=O)CNC(=O)[C@@H]1CCCN1C(=O)[C@H](CCC(N)=O)NC(=O)[C@@H]1CCCN1C(=O)[C@@H](NC(=O)[C@H](CC(N)=O)NC(=O)[C@@H]1CCCN1C(=O)[C@H](CC(C)C)NC(=O)[C@@H]1CCCN1C(=O)[C@@H](NC(=O)[C@@H](N)Cc1ccc(O)cc1)C(C)C)C(C)C)[C@@H](C)O)C(=O)N[C@@H](CCCCN)C(=O)N[C@@H](Cc1c[nH]c2ccccc12)C(=O)N1CCC[C@H]1C(=O)N[C@@H](CCC(N)=O)C(=O)NCC(=O)N[C@@H](Cc1ccc(O)cc1)C(=O)O [bee 9] (H-YVPLPNVPQPGRRPFPTFPGQGPFNPKIKWPQGY-OH)
diameter of growth-inhibition zone [1]: -- | diameter of growth-inhibition zone [2]: -- | activity, growth inhibition in liquid medium [3]: neither susceptible | diameter of growth-inhibition zone [4]: -- | diameter of growth-inhibition zone [5]: -- | diameter of growth-inhibition zone [6]: -- | susceptibility of eucaryote strain [7]: resistant | susceptibility of eucaryote strain [8]: resistant | diameter of growth-inhibition zone [9]: 9 mm | diameter of growth-inhibition zone [10]: -- | diameter of growth-inhibition zone [11]: -- | diameter of growth-inhibition zone [12]: -- | diameter of growth-inhibition zone [13]: -- | susceptibility, in words [14]: resistant | diameter of growth-inhibition zone [15]: -- | diameter of growth-inhibition zone [16]: -- | diameter of growth-inhibition zone [17]: -- | diameter of growth-inhibition zone [18]: -- | diameter of growth-inhibition zone [19]: -- | diameter of growth-inhibition zone [20]: -- | diameter of growth-inhibition zone [21]: -- | diameter of growth-inhibition zone [22]: -- | diameter of growth-inhibition zone [23]: -- | diameter of growth-inhibition zone [24]: -- | diameter of growth-inhibition zone [25]: -- | diameter of growth-inhibition zone [26]: -- | diameter of growth-inhibition zone [27]: -- | diameter of growth-inhibition zone [28]: -- | diameter of growth-inhibition zone [29]: -- | diameter of growth-inhibition zone [30]: -- | diameter of growth-inhibition zone [31]: -- | diameter of growth-inhibition zone [32]: -- | susceptibility, in words [33]: resistant | diameter of growth-inhibition zone [34]: -- | diameter of growth-inhibition zone [35]: --
